Results reported in patent US7645882B2, “Inhibitor of protein modification products formation” (priority 2003, dated 2010).

Test system: pentosidine
Experiment: Pentosidine formation inhibiting effect in plasma of hemodialysis patients
Format: biochemical, human
Settings: plasma from hemodialysis patients, final concentration 0.8, 2.0, 5.0 mM, 37° C. for one week; compared to pyridoxamine as positive control
Experimental: Fresh heparinized plasma samples were obtained after informed consent from hemodialysis patients prior to the dialysis session, and filtrated and sterilized. To the plasma (450 μL), there was added the solution of TM-2002 in dimethylsurphoxide (50 μL) (final concentration: 0.8, 2.0, 5.0 mM) incubated at 37° C. for one week. Then, the amount of pentosidine was measured.
Measurement of the amount of pentosidine was made as follows: to each incubated sample (50 μL) was added an equal volume of 10% trichloroacetic acid, followed by centrifugation at 5000 g for 5 minutes; after removal of the supernatant, the pellet was washed by 5% trichloroacetic acid (300 μL); the pellet was dried under reduced pressure and then subjected to hydrolysis in 6N HCl solution (100 μL) at 110° C. under nitrogen atmosphere for 16 hours; to the hydrolysate, 5N NaOH (100 μL) and 0.5 M phosphate buffer (pH 7.4) (200 μL) were added, followed by filtration through a porefilter with a pore size of 0.5 μm and dilution with PBS. The concentration of free pentosidine was determined by reversed-phase HPLC using a fluorescence detector (Miyata, T. et al.: Proc. Natl. Acad. Sci. USA, Vol. 93, p. 2353-2358, 1996). The effluent was monitored at 335/385 nm of excitation/emission wavelength. Synthetic pentosidine was used as the standard. The detection limit of pentosidine was 0.1 pmol/mg protein. […]

SMILES: Cc1ncc2c(c1O)C(c1c(C)nn(-c3ccccc3)c1O)OC2 (stereo not shown) [compound 68, 1-(5-hydroxy-3-methyl-1-phenyl-1H-pyrazol-4-yl)-6-methyl-1,3-dihydro-furo[3,4-c]pyridin-7-ol]
- pentosidine formation inhibiting effect: inhibits significantly pentosidine formation compared to pyridoxamine
